Data published in patent US10758549B2, “Compositions of obeticholic acid and methods of use” (Intercept Pharmaceuticals, Inc., priority 2015, dated 2020).

Tested on: patients with PBC
Assay: Example 9: randomized double-blind placebo-controlled 12-month trial of OCA in PBC
Format: in vivo, human
Settings: for Patients who achieved response (ALP<1.67×ULN, ALP reduction ≥15%, TB≤ULN) at Month 6 / Patients who achieved response (ALP<1.67×ULN, ALP reduction ≥15%, TB≤ULN) at Month 12: ITT; for patients who experienced an increase in ALP: 12 months (placebo 36%); for Response at Month 6 [1] / Response at Month 12 [1]: Table 25 analysis; for ALP < 1.67 × ULN and Decrease ≥ 15% at Month 6 [3] / ALP < 1.67 × ULN and Decrease ≥ 15% at Month 12 [3] / ALP < 1.67 × ULN at Month 6 [3] / ALP < 1.67 × ULN at Month 12 [3] / Decrease in ALP ≥ 15% at Month 6 [3] / Decrease in ALP ≥ 15% at Month 12 [3]: patients with Baseline ALP ≥ 1.67 × ULN but < 2.0 × ULN; for ALP < 2.0 × ULN and Decrease ≥ 40% at Month 6 [2] / ALP < 2.0 × ULN and Decrease ≥ 40% at Month 12 [2] / ALP < 2.0 × ULN at Month 6 [2] / ALP < 2.0 × ULN at Month 12 [2] / Decrease in ALP ≥ 40% at Month 6 [2] / Decrease in ALP ≥ 40% at Month 12 [2]: patients with Baseline ALP ≥ 2.0 × ULN
Procedure: This example describes a randomized, double-blind, placebo-controlled, parallel-group, 12-month trial evaluating OCA in patients with PBC as a monotherapy.
Patients with inflammatory bowel disease or who had undergone gastric bypass procedures were excluded (gastric lap band was acceptable). • Medical conditions that could cause non-hepatic increases in ALP (e.g., Paget's disease)
ALP and TB composite response criteria were measured; a patient was designated as a responder if all three of the following conditions were met: • A value of ALP<1.67×ULN • ALP reduction from baseline ? 15% • A value of TB<ULN
The absolute and percent change from Baseline in ALP, gamma-glutamyl transferase (GGT), alanine aminotransferase (ALT), AST, total bilirubin, conjugated (direct) bilirubin, albumin, prothrombin time and international normalized ratio (INR) at all-time points was measured. The percentage of patients with a decrease in ALP of ? 10%, ? 15%, ? 20%, and ? 40% from Baseline or ? ULN at month 12 was measured. The percentage of patients achieving the following biochemical response criteria was also measured: • ALP ? 3×ULN and AST ? 2×ULN and bilirubin ? ULN ((Corpechot 2008);
Bile acid sequestrant (BAS) concomitant exposure. The primary analysis set used for all efficacy analyses, along with the summarization of disposition along with demographics and baseline characteristics, was the ‘Intent-to-Treat’ (ITT) analysis set. This analysis set included all randomized patients who received at least one dose of blinded study drug. When utilizing this analysis set, patients were analyzed according to the treatment group that they were randomized to regardless of the actual treatment received. It should be noted that all but one randomized patient received at least one dose of blinded study drug.
A Cochran-Mantel-Haenszel (CMH) test which adjusted for both randomization stratification variables as described above, was used for pre-specified analysis. In tandem with the CMH test, a Breslow-Day test was also conducted, to test for the homogeneity of the treatment effect across the different randomization strata.

[1] = 10 mg OCA (N = 73), listed as Obeticholic acid

CC[C@H]1[C@@H](O)[C@@H]2[C@H](CC[C@]3(C)[C@@H]([C@H](C)CCC(=O)O)CC[C@@H]23)[C@@]2(C)CC[C@@H](O)C[C@@H]12 [OCA, 3α,7α-dihydroxy-6α-ethyl-5β-cholan-24-oic acid]
ALP Absolute Change from Baseline to Month 12 (U/L), Mean (10 mg OCA): −11|7.1 U/L | ALP Absolute Change from Baseline to Month 12 (U/L), Median (10 mg OCA): −99.0 U/L | ALP Percentage Change from Baseline to Month 12 (%), Mean (10 mg OCA): −36.4% | ALP Percentage Change from Baseline to Month 12 (%), Median (10 mg OCA): −38.3% | Month 12 ALP Concentration (U/L), Mean (10 mg OCA): 191.2 U/L | Month 12 ALP Concentration (U/L), Median (10 mg OCA): 181.7 U/L | Month 12 ALP Concentration (×ULN), Mean (10 mg OCA): 1.606 ×ULN | Month 12 ALP Concentration (×ULN), Median (10 mg OCA): 1.527 ×ULN | Patients with ALP < 1.67 × ULN at Month 12 (10 mg OCA (N = 73)): (54.8%) | Patients with Decrease in ALP ≥ 10% at Month 12 (10 mg OCA (N = 73)): (83.6%) | Patients with Decrease in ALP ≥ 15% at Month 12 (10 mg OCA (N = 73)): (78.1%) | Patients with Decrease in ALP ≥ 20% at Month 12 (10 mg OCA (N = 73)): (74.0%) | Patients with Decrease in ALP ≥ 40% at Month 12 (10 mg OCA (N = 73)): (34.3%) | Patients who achieved response (ALP<1.67×ULN, ALP reduction ≥15%, TB≤ULN) at Month 6 (10 mg OCA (N = 73)): 37 (50.7%) | Patients who achieved response (ALP<1.67×ULN, ALP reduction ≥15%, TB≤ULN) at Month 6 [1]: 37 (51) % | Patients who achieved response (ALP<1.67×ULN, ALP reduction ≥15%, TB≤ULN) at Month 12 [1]: 34 (47) % | Patients with Decrease in ALP ≥ 15% at Month 12 (10 mg OCA (N = 73), listed as obeticholic acid): 77% | patients who experienced an increase in ALP (10 mg obeticholic acid): 2% | up-titrated patients who met the composite endpoint (33 patients titrated from 5 mg to 10 mg at Month 6): 39% | ALP Absolute Change from Baseline to Month 12 (U/L), Median (OCA Titration): −85.5 U/L | ALP Percentage Change from Baseline to Month 12 (%), Mean (OCA Titration): −30.5% | ALP Percentage Change from Baseline to Month 12 (%), Median (OCA Titration): −31.5% | Month 12 ALP Concentration (U/L), Mean (OCA Titration): 219.5 U/L | Month 12 ALP Concentration (U/L), Median (OCA Titration): 196.6 U/L | Month 12 ALP Concentration (×ULN), Mean (OCA Titration): 1.851 ×ULN | Month 12 ALP Concentration (×ULN), Median (OCA Titration): 1.661 ×ULN | Patients with ALP < 1.67 × ULN at Month 12 (OCA Titration (N = 70)): (47.1%) | Patients with Decrease in ALP ≥ 10% at Month 12 (OCA Titration (N = 70)): (78.6%) | Patients with Decrease in ALP ≥ 15% at Month 12 (OCA Titration (N = 70)): (77.1%) | Patients with Decrease in ALP ≥ 20% at Month 12 (OCA Titration (N = 70)): (70.0%) | Patients with Decrease in ALP ≥ 40% at Month 12 (OCA Titration (N = 70)): (30.0%) | Patients with Decrease in ALP ≥ 15% at Month 12 (OCA Titration (N = 70), listed as obeticholic acid): 77% | Patients who achieved response (ALP<1.67×ULN, ALP reduction ≥15%, TB≤ULN) at Month 6 (OCA Titration, 5 mg (N = 70)): 24 (34.3%) | Patients who achieved response (ALP<1.67×ULN, ALP reduction ≥15%, TB≤ULN) at Month 6 (OCA Titration, 5 mg (N = 70), listed as Obeticholic acid): 24 (34) % | Patients who achieved response (ALP<1.67×ULN, ALP reduction ≥15%, TB≤ULN) at Month 12 (OCA Titration, 5 mg or 10 mg (N = 70), listed as Obeticholic acid): 32 (46) % | Response at Month 6 [1] (10 mg OCA (N = 60)): (41.7%) | Response at Month 12 [1] (10 mg OCA (N = 60)): (43.3%) | Response at Month 6 [1] (OCA Titration (N = 60)): (35.0%) | Response at Month 12 [1] (OCA Titration (N = 60)): (38.3%) | responders who became non-responders (continued dosing of 5 mg QD, month 6 to month 12): 19% | ALP < 1.67 × ULN and Decrease ≥ 15% at Month 6 [3] (10 mg OCA): (88.9%) | ALP < 1.67 × ULN and Decrease ≥ 15% at Month 12 [3] (10 mg OCA): (77.8%) | ALP < 1.67 × ULN at Month 6 [3] (10 mg OCA): (94.4%) | ALP < 1.67 × ULN at Month 12 [3] (10 mg OCA): (88.9%) | Decrease in ALP ≥ 15% at Month 6 [3] (10 mg OCA): (88.9%) | Decrease in ALP ≥ 15% at Month 12 [3] (10 mg OCA): (77.8%) | ALP < 1.67 × ULN and Decrease ≥ 15% at Month 6 [3] (OCA Titration): (76.9%) | ALP < 1.67 × ULN and Decrease ≥ 15% at Month 12 [3] (OCA Titration): (76.9%) | ALP < 1.67 × ULN at Month 6 [3] (OCA Titration): (76.9%) | ALP < 1.67 × ULN at Month 12 [3] (OCA Titration): (84.6%) | Decrease in ALP ≥ 15% at Month 6 [3] (OCA Titration): (84.6%) | Decrease in ALP ≥ 15% at Month 12 [3] (OCA Titration): (76.9%) | ALP < 2.0 × ULN and Decrease ≥ 40% at Month 6 [2] (10 mg OCA): (21.4%) | ALP < 2.0 × ULN and Decrease ≥ 40% at Month 12 [2] (10 mg OCA): (28.6%) | ALP < 2.0 × ULN at Month 6 [2] (10 mg OCA): (71.4%) | ALP < 2.0 × ULN at Month 12 [2] (10 mg OCA): (69.1%) | Decrease in ALP ≥ 40% at Month 6 [2] (10 mg OCA): (23.8%) | Decrease in ALP ≥ 40% at Month 12 [2] (10 mg OCA): (31.0%) | ALP < 2.0 × ULN and Decrease ≥ 40% at Month 6 [2] (OCA Titration): (23.4%) | ALP < 2.0 × ULN and Decrease ≥ 40% at Month 12 [2] (OCA Titration): (27.7%) | ALP < 2.0 × ULN at Month 6 [2] (OCA Titration): (51.1%) | ALP < 2.0 × ULN at Month 12 [2] (OCA Titration): (59.6%) | Decrease in ALP ≥ 40% at Month 6 [2] (OCA Titration): (27.7%) | Decrease in ALP ≥ 40% at Month 12 [2] (OCA Titration): (34.0%) | patients who experienced an increase in ALP (titration obeticholic acid): 5%
